Test: Hematology assays in cynomolgus monkeys (Example 45)
Assay type: in vivo
Details: for RBC count / WBC count / hematocrit / hemoglobin / MCH / MCHC / MCV: escalating dose regimen
Summary of the method: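 Cynomolgus monkeys (2 male, 3 female per group) dosed subcutaneously with antisense oligonucleotide or PBS, escalating 5, 10, then 25 mg/kg two to three times weekly over 12 weeks; one chronic group held at 10 mg/kg from week 4. Blood sampled weekly; necropsy on day 85.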

ISIS 416838: MOE gapmer, nucleobases 1018 to 1042 of SEQ ID NO: 1 (Table 6) (antisense GCAACCGGGATGATGAGTGC; MOE gapmer, wing and gap sizes not given here)
RBC count (day 50): 5.5e+06 µL⁻¹ | WBC count (day 50): 11000 µL⁻¹ | hematocrit (day 50): 44% | hemoglobin (day 50): 12.3 g/dL | basophils (day 57): 0.3% | eosinophils (day 57): 0.6% | lymphocytes (day 57): 63% | monocytes (day 57): 3.2% | neutrophils (day 57): 32% | platelet count (day 57): 371000 µL⁻¹ | reticulocytes (day 57): 1.5% | MCH (day 57): 23 pg | MCHC (day 57): 29 g/dL | MCV (day 57): 79 fL | RBC count (day 57): 5.5e+06 µL⁻¹ | WBC count (day 57): 12000 µL⁻¹ | hematocrit (day 57): 43% | hemoglobin (day 57): 12.6 g/dL | basophils (day 64): 0.4% | eosinophils (day 64): 0.7% | lymphocytes (day 64): 64% | monocytes (day 64): 3.5% | neutrophils (day 64): 30% | platelet count (day 64): 358000 µL⁻¹ | reticulocytes (day 64): 1.3% | MCHC (day 64): 29 g/dL | MCV (day 64): 79 fL | RBC count (day 64): 5.6e+06 µL⁻¹ | WBC count (day 64): 13000 µL⁻¹ | hematocrit (day 64): 44% | hemoglobin (day 64): 12.6 g/dL | basophils (day 71): 0.5% | eosinophils (day 71): 0.8% | lymphocytes (day 71): 65% | monocytes (day 71): 4.3% | neutrophils (day 71): 28% | platelet count (day 71): 365000 µL⁻¹ | reticulocytes (day 71): 1.3% | MCHC (day 71): 29 g/dL | MCV (day 71): 80 fL | RBC count (day 71): 5.5e+06 µL⁻¹ | WBC count (day 71): 15000 µL⁻¹ | hematocrit (day 71): 44% | hemoglobin (day 71): 12.7 g/dL | basophils (day 78): 0.4% | eosinophils (day 78): 0.9% | lymphocytes (day 78): 60% | monocytes (day 78): 3.6% | neutrophils (day 78): 35% | platelet count (day 78): 348000 µL⁻¹ | reticulocytes (day 78): 1.4% | MCHC (day 78): 30 g/dL | MCV (day 78): 76 fL | RBC count (day 78): 5.4e+06 µL⁻¹ | WBC count (day 78): 11000 µL⁻¹ | hematocrit (day 78): 41% | hemoglobin (day 78): 12.5 g/dL | basophils (day 85): 0.3% | eosinophils (day 85): 1.5% | lymphocytes (day 85): 72% | monocytes (day 85): 3.7% | neutrophils (day 85): 22% | platelet count (day 85): 344000 µL⁻¹ | reticulocytes (day 85): 1.5% | MCHC (day 85): 30 g/dL | MCV (day 85): 77 fL | RBC count (day 85): 5.5e+06 µL⁻¹ | WBC count (day 85): 12000 µL⁻¹ | hematocrit (day 85): 42% | hemoglobin (day 85): 12.4 g/dL | basophils (day −5): 0.3% | eosinophils (day −5): 0.6% | lymphocytes (day −5): 59% | monocytes (day −5): 3.6% | neutrophils (day −5): 35% | platelet count (day −5): 425000 µL⁻¹ | reticulocytes (day −5): 0.9% | MCH (day −5): 23 pg | MCHC (day −5): 31 g/dL | MCV (day −5): 76 fL | RBC count (day −5): 5.6e+06 µL⁻¹ | WBC count (day −5): 12000 µL⁻¹ | hematocrit (day −5): 42% | hemoglobin (day −5): 13.1 g/dL | basophils (day −14): 0.2% | eosinophils (day −14): 0.6% | lymphocytes (day −14): 59% | monocytes (day −14): 3.1% | neutrophils (day −14): 36% | platelet count (day −14): 377000 µL⁻¹ | reticulocytes (day −14): 1.0% | MCH (day −14): 23 pg | MCHC (day −14): 30 g/dL | MCV (day −14): 77 fL | RBC count (day −14): 5.6e+06 µL⁻¹ | WBC count (day −14): 12000 µL⁻¹ | hematocrit (day −14): 42% | hemoglobin (day −14): 12.9 g/dL

Reference: US20230263822A1, “MODULATION OF FACTOR 11 EXPRESSION” (Ionis Pharmaceuticals, Inc., priority 2008, published 2023)
